Measured values taken from paper PMC6410080 (Viruses, 2019).
pIC50: −log10 of the molar value. Where a name gives a salt, the structure may show the parent alone. Read-outs that look alike come from different tables or passages of the source.

What was measured:
[1] = tested on: SFV; assay: microbe, parasite or virus in culture; type: cell-based, Semliki Forest virus; settings: Semliki Forest virus; for pIC50: HeLa Kyoto, read-out: IC50 SFV (7 h); for inhibition at 10 µM: M-HeLa, 7 h, read-out: % inhibition (SFV screen)
[2] = tested on: DENV-2; assay: DENV-2 infection assay / secondary screen (E protein staining); type: cell-based, dengue virus serotype 2; settings: Dengue virus, DENV2, Huh-7, 24 h; for inhibition at 10 µM: read-out: % inhibition (DENV-2 screen)
[3] = tested on: SINV; assay: microbe, parasite or virus in culture; type: cell-based, Sindbis virus; settings: Sindbis virus, HeLa Kyoto, read-out: IC50 SINV
[4] = tested on: DENV-1; assay: microbe, parasite or virus in culture; type: cell-based, dengue virus; settings: Dengue virus, DENV1, Huh-7, read-out: IC50 DENV-1
[5] = tested on: DENV-3; assay: microbe, parasite or virus in culture; type: cell-based, dengue virus; settings: Dengue virus, DENV3, Huh-7, read-out: IC50 DENV-3
[6] = tested on: ZIKV; assay: microbe, parasite or virus in culture; type: cell-based, Zika virus; settings: for pIC50: Zika virus, Huh-7, read-out: IC50 ZIKV
[7] = tested on: YF17D; assay: organism not typed; type: cell-based, yellow fever 17D; settings: Huh-7, read-out: IC50 YF17D
[8] = tested on: HCV; assay: microbe, parasite or virus in culture; type: cell-based, hepatitis C virus; settings: Hepatitis C virus, Huh7.5, read-out: IC50 HCV
[9] = tested on: VSV VLP; assay: microbe, parasite or virus in culture; type: cell-based, vesicular stomatitis virus; settings: Vesicular stomatitis virus, HeLa Kyoto, 24 h, read-out: IC50 VSV
[10] = tested on: RABV VLP; assay: microbe, parasite or virus in culture; type: cell-based, rabies virus; settings: for pIC50: Lyssavirus rabies, HeLa Kyoto, 24 h, read-out: IC50 RABV
[11] = tested on: H5N1 VLP; assay: microbe, parasite or virus in culture; type: cell-based, influenza H5N1; settings: for pIC50: Influenza A virus, H5N1, HeLa Kyoto, 48 h, read-out: IC50 H5N1
[12] = tested on: EBOV VLP; assay: microbe, parasite or virus in culture; type: cell-based, Ebola virus; settings: Zaire ebolavirus, HeLa Kyoto, 48 h, read-out: IC50 EBOV
[13] = tested on: HIV-1; assay: microbe, parasite or virus in culture; type: cell-based, human immunodeficiency virus type 1; settings: for IC50 HIV: virus, HeLa TZM-bl, 24 h
[14] = tested on: HSV-1; assay: microbe, parasite or virus in culture; type: cell-based, herpes simplex virus 1; settings: 8 h; for pIC50: Human alphaherpesvirus 1, Vero, read-out: IC50 HSV (Vero)
[15] = tested on: VACV; assay: microbe, parasite or virus in culture; type: cell-based, vaccinia virus; settings: for pIC50: Orthopoxvirus vaccinia, HeLa Kyoto, 8 h, read-out: IC50 VACV
[16] = tested on: DID-labelled SFV hemifusion/fusion; type: cell-based, Semliki Forest virus; settings: HeLa Kyoto, 10 μM (20 μM Raloxifene; Bafilomycin 100 nM), 40 min at 37 °C
[17] = tested on: SFV; type: cell-based, Semliki Forest virus
[18] = tested on: viruses/VLPs tested; type: cell-based
[19] = tested on: HeLa Kyoto cells; settings: human
[20] = in vitro; settings: human, % viability (SFV screen)
[21] = in vitro; settings: human
[22] = tested on: Huh7 cells; assay: MTT assay, Huh7 cells; settings: for TC50 DENV-2 (7 + 17 h): Huh7, compounds 7 h then compound-free media 17 h; for TC50 DENV-2 (24 h): Huh7, compounds 24 h
[23] = tested on: SFV E1 trimer formation; settings: HeLa Kyoto, MOI 100; Chloroquine 100 μM
[24] = tested on: VSV_Blam_VLP fusion; assay: microbe, parasite or virus in culture; type: cell-based; settings: Vesicular stomatitis virus, HeLa Kyoto, read-out: Inhibition of VSV_Blam_VLP fusion compared to DMSO controls
[25] = tested on: SFV internalisation; type: cell-based, Semliki Forest virus
[26] = tested on: Renilla luciferase expression (protein synthesis); type: cell-based
[27] = in vivo
[28] = in vivo; settings: CD1, mouse, ip, 10 mg/kg
[29] = read-out: IC50 DENV-2 (7 + 17 h)

| SMILES | pIC50 [1] | inhibition at 10 µM [1] | inhibition at 10 µM [2] | pIC50 [2, 29] | pIC50 ([2]; read-out: IC50 DENV-2 (24 h)) | pIC50 [3] | pIC50 [4] | pIC50 [5] | pIC50 [7] | pIC50 [8] | pIC50 [9] | pIC50 [12] | Inhibition of DID-SFV de-quenching (in words) [16] | Activity when added before SFV or 30 and 60 min after internalisation [17] | Time of Addition [17] | Viruses Inhibited [18] | TC50 SFV (7 h) [19] | TC50 SFV (7h) [19] | viability at 10 µM [20] | viability at 10 µM [21] | further results |
| --- | --- | --- | --- | --- | --- | --- | --- | --- | --- | --- | --- | --- | --- | --- | --- | --- | --- | --- | --- | --- | --- |
| CCN(CC)Cc1cc(Nc2ccnc3cc(Cl)ccc23)ccc1O [Amodiaquine, Amodiaquine dihydrochloride dihydrate] | 5.07 | 73.3% | 92.1% | 4.90 | 4.76 | 4.95 | ~4.61 | ~4.60 | 5.28 | 5.38 | 4.95 | 6.05 | Intermediate levels of inhibition | act exclusively before (or at the stage of) fusion | Before fusion | Endosomal pH-dep. | >50 µM | >50000 µM | 115% | 79% | IC50 ZIKV [6]: No inhibition; pIC50 [10]: 4.63; pIC50 [11]: 4.87; IC50 HIV [13]: No inhibition; pIC50 [14]: 4.55; IC50 VACV [15]: No inhibition; TC50 DENV-2 (7 + 17 h) [22]: 44.2 µM; TC50 DENV-2 (24 h) [22]: 18.4 µM |
| CC(C)COCC(CN(Cc1ccccc1)c1ccccc1)N1CCCC1 (stereo not shown) [Bepridil, Bepridil hydrochloride] | 5.02 | 91.2% | 97.8% | 4.82 | 4.92 | 4.84 | ~4.70 | ~4.70 | 5.15 | ~4.91 | 4.98 | 6.10 | Intermediate levels of inhibition | act exclusively before (or at the stage of) fusion | Before fusion | Endosomal pH-dep. | 34.9 µM | 34900 µM | 71.3% | 48.7% | pIC50 [6]: ~4.60; pIC50 [10]: 5.16; pIC50 [11]: 5.09; IC50 HIV [13]: No inhibition; IC50 HSV (Vero) ([14]; virus, Vero cells): No inhibition; pIC50 [15]: 4.57; TC50 DENV-2 (7 + 17 h) [22]: ~48.8 µM; TC50 DENV-2 (24 h) [22]: ~23.4 µM |
| CCN(CC)CCCC(C)Nc1ccnc2cc(Cl)ccc12 (stereo not shown) [Chloroquine] |  |  |  |  |  |  |  |  |  |  |  |  |  |  |  |  |  |  |  |  | SFV E1 trimer formation [23]: prevented trimer formation |
| O=C(Nc1ccc([N+](=O)[O-])cc1Cl)c1cc(Cl)ccc1O [Niclosamide] | 5.52 | 73.1% | 75.4% | 5.96 | 6.40 | 5.55 | 5.82 | 5.80 | > 6.52 | 6.70 | 5.46 | 5.54 | Strong inhibition of de-quenching | minor but reproducible decrease in activity | Before and after fusion | All tested | >50 µM | >50000 µM | 104% | 36.9% | pIC50 [6]: ~6.15; pIC50 [10]: 5.89; pIC50 [11]: 5.85; pIC50 ([13]; Human immunodeficiency virus 1, 24 h, read-out: IC50 HIV): 5.48; pIC50 [14]: 5.89; pIC50 [15]: 5.52; inhibition at 10 µM [24]: > 50%; Internalised SFV E1/E2 after subtilisin treatment [25]: Loss of E1/E2; Kinetics of SFV internalisation (subtilisin resistance) [25]: remained lower compared to untreated control; Decrease of Renilla signal (protein synthesis) [26]: more than 50%; SFV E1 trimer formation [23]: No trimers were observed; Peak blood concentration ([27]; CD1, mouse): 40 µM; Blood level after 2 h ([27]; mouse): undetectable; Tmax [28]: 15 min; TC50 DENV-2 (7 + 17 h) [22]: >50 µM; TC50 DENV-2 (24 h) [22]: 12.8 µM |
| O=C(c1ccc(OCCN2CCCCC2)cc1)c1c(-c2ccc(O)cc2)sc2cc(O)ccc12 [Raloxifene, Raloxifene hydrochloride] | 4.82 | 87.7% | 80% | 5.24 | 5.01 | 4.51 | 5.06 | 5.28 | 5.11 | 5.41 | 4.90 | 5.85 | Intermediate levels of inhibition | minor but reproducible decrease in activity | Before and after fusion | Unclear pattern | >50 µM | >50000 µM | 92% | 60.4% | IC50 RABV [10]: No inhibition; IC50 H5N1 [11]: No inhibition; IC50 HIV [13]: No inhibition; pIC50 [14]: 4.63; pIC50 [15]: 4.70; inhibition at 10 µM [24]: > 50%; TC50 DENV-2 (7 + 17 h) [22]: 24.8 µM; TC50 DENV-2 (24 h) [22]: ~22.63 µM |
